In patent publication US10745434B2, “Uridine phosphoramide prodrug, preparation method therefor, and medicinal uses thereof” (priority 2016, dated 2020):
pEC50, pIC50: −log10 of the molar value. Read-outs that look alike come from different tables or passages of the source. Each block holds one compound with its values, some of them ahead of it.

What was measured:
HCV GT1b replicons = experiment: Anti-HCV replicon activity, HCV GT1b stable transfection replicon cell line (luciferase); assay type: cell-based, hepatitis C virus (HCV) genotype (GT) 1b
Experimental: (§1) A hepatitis C virus (HCV) genotype (GT) 1b stable transfection replicon cell line system was used to determine the inhibitory activity of the compounds to the HCV GT1b replicons. In this experiment, the compound 06a (GS-7977) was used as a control compound to monitor the experimental quality.
(§2) [drawing 4] 2. Compound dilution: 20 mM mother liquor was prepared by using 100% DMSO, and the compound DMSO mother liquor was diluted and added to a 96-well experiment plate. The final concentration of the DMSO was 0.5%. In in-vitro anti-HCV activity experiments and cytotoxicity experiments, all compounds had the initial concentration of 20 microns, and were diluted by 5 times of dilution. The final concentration of the DMSO of 6 concentrations were 0.5%. 3. Cell treatment: HCV-1b replicon sub-cells were added to the above 96-well cell plate (8,000 cells/well), and then placed into an incubator of 37 DEG C. and 5% CO2 for culturing for 3 days. 4. Cell activity detection: a cell growth fluorescent titration detection reagent was added to each well; after the cells were cultured for 1 hour in the incubator of 37 DEG C. and 5% CO2, a spectrophotometer detection system Envision was used to detect a Fluorescence signal value. The original data, i.e, relative fluorescence units (RFUs), was used for the calculation of the cell toxicity of the compounds. 5. Anti-HCV replicon activity detection: a luciferase light-emitting substrate bright-GLO was added to each well, and a chemiluminescence detection system Envision was used for detecting a Luminescence signal value in 5 minutes. The original data, i.e., relative light units (RLUs), was used for the calculation of the inhibitory activity of the compounds. 6. Data processing: the RFUs obtained in step 1.3 were processed into a cell activity percentage by using the following formula: […]
The RLUs obtained in step 1.4 were processed into a inhibition percentage by using the following formula:
[formula] *CPD: signal values of compound wells HPE (high percent effect): 100% effective action control well signal value, with only DMEM culture solution in the wells; The ZPE (zero percent effect): noneffective control well signal value, with 0.5% DMSO to replace the compound.
(§3) The cell activity percentage and the inhibition percentage were respectively imported into GraphPad Prism software for data processing to obtain curves corresponding to the compounds and their values of cytotoxicity (CC50) and inhibitory activity (ECD50) to the HCV replicons.

[1] = Cytotoxicity in HCV-1b replicon cells (cell growth fluorescent titration); assay type: cell-based; conditions: HCV genotype 1b stably transfected replicon cells, HCV GT1b replicon cells
Experimental: as §1, §2, §3

[2] = Simulated gastric liquid stability; assay type: in vitro ADME
Human liver S9 stability = assay type: in vitro ADME; conditions: human liver S9, test concentration 1 μM
Experimental: 4. Human Liver S9 Stability Parameters (Test Concentration: 1 μM), See Table 5.

Human plasma stability = assay type: in vitro ADME; conditions: test concentration 2 μM
Experimental: 3. Human Plasma Stability (Test Concentration: 2 μM), See Table 4.

[3] = Simulated intestinal fluid stability; assay type: in vitro ADME; conditions: test concentration 10 μM
Experimental: 2. Simulated Intestinal Fluid Stability (Test Concentration: 10 μM), See Table 3: […]

[4] = molecular target: T1, herg potassium ion channel (Homo sapiens, UniProt Q12809); experiment: In vitro cardiotoxicity, hERG manual patch clamp in CHO cells; assay type: cell-based
T1 construct: host or cells: CHO cells stably expressing hERG
Experimental: The experiment adopted CHO cells which can stably express the herg potassium ion channel from AVivaBiosciences company, wherein the cells were incubated in a constant-humidity environment at the temperature of 37 DEG C. with 5% CO2.
The compounds were tested on a Multiclamp patch-clamp amplifier at room temperature; the output signals were digitized by using a DLigital 1440 A/D-D/A board; the PCLAMP 10 software was used for recording and controlling. The minimum sealing resistance was set to 500 MOhms and the minimum specific hERG current was set to 0.4 nA for quality control.
Clampfit (V10.2, Molecular Devices), Excel 2003 and GraphPad Prism 5.0 were used for data analysis.

[5] = Hepatitis C virus, GT1B, 72 h, read-out: EC50 anti-HCV replicon activity, HCV GT1b replicons, 3 days, maximum test concentration 20 μM
[6] = read-out: EC50 anti-HCV replicon activity, HCV GT1b replicons, 3 days, maximum test concentration 20 μM

T1 sequence (Q12809 whole entry): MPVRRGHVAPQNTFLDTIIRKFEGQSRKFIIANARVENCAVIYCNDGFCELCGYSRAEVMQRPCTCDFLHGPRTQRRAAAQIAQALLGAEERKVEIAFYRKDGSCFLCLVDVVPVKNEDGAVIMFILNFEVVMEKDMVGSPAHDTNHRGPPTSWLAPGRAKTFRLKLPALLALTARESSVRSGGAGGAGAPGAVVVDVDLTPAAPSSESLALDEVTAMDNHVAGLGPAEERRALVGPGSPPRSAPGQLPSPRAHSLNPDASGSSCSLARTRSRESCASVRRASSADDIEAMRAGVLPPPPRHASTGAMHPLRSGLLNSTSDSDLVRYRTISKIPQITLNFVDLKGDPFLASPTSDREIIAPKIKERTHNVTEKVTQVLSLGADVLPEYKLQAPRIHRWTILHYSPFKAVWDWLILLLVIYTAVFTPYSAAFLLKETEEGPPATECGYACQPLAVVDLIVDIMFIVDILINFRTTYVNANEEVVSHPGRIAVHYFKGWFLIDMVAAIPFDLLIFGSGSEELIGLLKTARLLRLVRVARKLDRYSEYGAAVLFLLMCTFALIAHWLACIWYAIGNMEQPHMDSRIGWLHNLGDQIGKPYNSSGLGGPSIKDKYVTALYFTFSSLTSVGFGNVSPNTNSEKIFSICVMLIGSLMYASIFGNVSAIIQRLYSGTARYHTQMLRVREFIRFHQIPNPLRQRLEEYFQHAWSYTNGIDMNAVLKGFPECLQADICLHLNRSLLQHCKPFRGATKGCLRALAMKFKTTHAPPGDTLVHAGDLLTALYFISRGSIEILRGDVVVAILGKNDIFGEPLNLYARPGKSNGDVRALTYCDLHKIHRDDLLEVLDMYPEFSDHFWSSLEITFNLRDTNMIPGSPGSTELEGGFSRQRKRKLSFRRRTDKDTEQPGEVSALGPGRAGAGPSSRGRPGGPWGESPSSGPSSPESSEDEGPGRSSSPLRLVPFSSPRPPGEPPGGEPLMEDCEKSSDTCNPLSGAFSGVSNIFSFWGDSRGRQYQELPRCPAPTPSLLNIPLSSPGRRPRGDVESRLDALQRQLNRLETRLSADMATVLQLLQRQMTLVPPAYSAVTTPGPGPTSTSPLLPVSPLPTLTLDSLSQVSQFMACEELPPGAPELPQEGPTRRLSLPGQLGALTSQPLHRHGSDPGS

Structure (SMILES): COc1ccccc1COP(=O)(N[C@@H](C)C(=O)OC(C)C)OC[C@H]1O[C@@H](n2ccc(=O)[nH]c2=O)[C@](C)(F)[C@@H]1O (stereo partly shown) [Compound 03]
pEC50 (HCV GT1b replicons; [5]): < 4.70 | CC50 at 3 days [1]: > 20 µM

Structure (SMILES): Cc1ccc(COP(=O)(N[C@@H](C)C(=O)OC(C)C)OC[C@H]2O[C@@H](n3ccc(=O)[nH]c3=O)[C@](C)(F)[C@@H]2O)cc1 (stereo partly shown) [Compound 04]
pEC50 (HCV GT1b replicons; [5]): 4.70 to 5.00 | pEC50 (HCV GT1b replicons; [6]): 4.82 | CC50 at 3 days [1]: > 20 µM

Structure (SMILES): COc1ccc(COP(=O)(N[C@@H](C)C(=O)OC(C)C)OC[C@H]2O[C@@H](n3ccc(=O)[nH]c3=O)[C@](C)(F)[C@@H]2O)cc1 (stereo partly shown) [Compound 05]
pEC50 (HCV GT1b replicons; [5]): < 4.70 | CC50 at 3 days [1]: > 20 µM

% 0 h residual percentage ([2]; 20 μM): 100% | % 1 h residual percentage ([2]; 20 μM): 5.24% | % 2 h residual percentage ([2]; 20 μM): 2.76% | % 6 h residual percentage ([2]; 20 μM): 0.20% | % 24 h residual percentage ([2]; 20 μM): 0.00%
Structure (SMILES): COc1ccc2[nH]c([S+]([O-])Cc3ncc(C)c(OC)c3C)nc2c1 (stereo not shown) [Omeprazole]

Structure (SMILES): CC(C)OC(=O)[C@H](C)NP(=O)(OC[C@H]1O[C@@H](n2ccc(=O)[nH]c2=O)[C@](C)(F)[C@@H]1O)Oc1ccccc1 (stereo partly shown) [Patent compound 06 in 2008]
% 0 h residual percentage ([2]; test concentration 10 μM): 100% | % 1 h residual percentage ([2]; test concentration 10 μM): 95.19% | % 2 h residual percentage ([2]; test concentration 10 μM): 98.47% | % 6 h residual percentage ([2]; test concentration 10 μM): 84.08% | % 24 h residual percentage ([2]; test concentration 10 μM): 49.36% | CLlint(s9) (Human liver S9 stability): 6.0 µL/min/mg | half-life at 1 μM (Human liver S9 stability): 1.92 h | Remaining % (NCF = 1 h) (Human liver S9 stability; NCF = 1 h): 64.0% | Remaining % (T = 1 h) (Human liver S9 stability; T = 1 h): 58.6% | CLlint(s9) (Human liver S9 stability; scaled per kg): 1.27 mL/h/kg | pEC50 (HCV GT1b replicons; [5]): > 5.00 | pEC50 (HCV GT1b replicons; [6]): 5.01 | % 0 min residual percentage (Human plasma stability): 100% | % 10 min residual percentage (Human plasma stability): 78.8% | % 30 min residual percentage (Human plasma stability): 70.9% | % 60 min residual percentage (Human plasma stability): 72.0% | % 120 min residual percentage (Human plasma stability): 65.3% | CC50 at 3 days [1]: > 20 µM | % 0 h residual percentage ([3]; 0 h): 100% | % 1 h residual percentage ([3]; 1 h): 0.00% | % 2 h residual percentage ([3]; 2 h): 0.00% | % 6 h residual percentage ([3]; 6 h): 0.00% | % 24 h residual percentage ([3]; 24 h): 0.00%

Structure (SMILES): CC(C)OC(=O)[C@H](C)N[P@](=O)(OC[C@H]1O[C@@H](n2ccc(=O)[nH]c2=O)[C@](C)(F)[C@@H]1O)Oc1ccccc1 [Patent compound 06a in 2010]
pIC50 [4]: < 5.00 | pEC50 (HCV GT1b replicons; [5]): 6.14 | CC50 at 3 days [1]: > 3 µM

% 0 min residual percentage (Human plasma stability): 100% | % 10 min residual percentage (Human plasma stability): 53.3% | % 30 min residual percentage (Human plasma stability): 14.3% | % 60 min residual percentage (Human plasma stability): 2.2% | % 120 min residual percentage (Human plasma stability): 0.0%
Structure (SMILES): CC(C)[N+](C)(CCOC(=O)C1c2ccccc2Oc2ccccc21)C(C)C [Propantheline]
